Measurements from patent publication US11840686B2, “Modulation of prekallikrein (PKK) expression” (Ionis Pharmaceuticals, Inc., priority 2013, dated 2023).
Strand notation (5' to 3'): a small letter for the sugar, then the base; units joined by * are phosphorothioate-linked, units joined directly phosphodiester-linked; [ ] holds rarer units or linkages, { } end groups; capitals alone tell only the bases. e = 2'-O-(2-methoxyethyl) (MOE); k = constrained ethyl (cEt); [5mC] = 5-methylcytosine; d = 2'-deoxy (DNA)

What was measured:
human PKK mRNA [1] = assay: Antisense inhibition of human PKK mRNA in HepaRG cells, 5,000 nM (Example 2); format: cell-based; conditions: HepaRG cells, 20,000 cells per well, electroporation with 5,000 nM antisense oligonucleotide, approx. 24 hours, PKK mRNA by RT-PCR (RTS3454), relative to untreated control cells
In short: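 Percent inhibition of PKK mRNA is relative to untreated control, with qRT-PCR (probe set RTS3454) values adjusted to total RNA by RIBOGREEN. Oligonucleotides, fully phosphorothioate 2′-MOE gapmers, were delivered at 5,000 nM by electroporation into 20,000 HepaRG cells/well for about 24 h.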

human PKK mRNA [2] = assay: Dose-dependent antisense inhibition of human PKK in HepaRG cells, 0.19-5.00 uM (Example 5); format: cell-based
In short: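 PKK mRNA knockdown was measured by real-time PCR (primer probe set RTS3454) about 16 h after electroporating 20,000 HepaRG cells per well with oligonucleotide at four doses from 0.19 to 5.00 μM. Levels were adjusted to RIBOGREEN-measured total RNA, and IC50 values were calculated.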

human PKK mRNA [3] = assay: Human PKK mRNA in liver of human KLKB1 transgenic mice (Example 7); format: in vivo; conditions: twice a week for 3 weeks
Experimental: (§1) Transgenic mice containing a 37,390 base pair fragment of the human KLKB1 gene sequence (chromosome 4: position 187148672-187179625, accession no: NC_000004.11) were treated with ISIS antisense oligonucleotides selected from studies described above, which were evaluated for efficacy in this model.
(§2) Groups of transgenic mice were injected subcutaneously twice a week for 3 weeks with 2.5 mg/kg/week, 5.0 mg/kg/week, 10 mg/kg/week or 20 mg/kg/week of ISIS 546232, ISIS 546251, ISIS 546254, ISIS 546343, ISIS 546828, ISIS 547455, ISIS 547457, ISIS 547927, and ISIS 548048. One group of transgenic mice was injected subcutaneously twice a week for 3 weeks with PBS. Mice were euthanized 48 hours after the last dose, and organs and plasma were harvested for further analysis.
To evaluate the effect of ISIS oligonucleotides on target reduction, RNA was extracted from liver tissue for real-time PCR analysis of human PKK. Results are presented as percent inhibition of PKK mRNA, relative to PBS control.

PKK protein = assay: Plasma PKK protein levels in human KLKB1 transgenic mice (Example 7); format: in vivo; conditions: plasma, twice a week for 3 weeks
Experimental: as §1, §2
Plasma PKK protein levels were evaluated in all groups. Results are presented as percent inhibition of PKK protein, relative to PBS control.

PKK mRNA = PKK mRNA in cynomolgus monkey liver (Example 8); format: in vivo; conditions: 40 mg/kg s.c., loading then weekly to week 13; day 87 or 88, 48 h after final dose
Experimental: Cynomolgus monkeys were treated with ISIS antisense oligonucleotides selected from studies described above. Antisense oligonucleotide efficacy and tolerability were evaluated. The human antisense oligonucleotides tested are cross-reactive with the rhesus genomic sequence (GENBANK Accession No. NW_001118167.1 truncated from nucleotides 2358000 to 2391000 and designated herein as SEQ ID NO: 18).
On day 87 or 88, 48 hours after the final dose, RNA was extracted from liver tissue for real-time PCR analysis of PKK using primer probe set RTS3455 (forward sequence […], designated herein as SEQ ID NO: 23; reverse sequence […], designated herein as SEQ ID NO: 24; probe sequence […], designated herein as SEQ ID NO: 25). The results were normalized to the housekeeping gene, Cyclophilin. Results are presented as percent inhibition of PKK mRNA, relative to PBS control.

human PKK mRNA [4] = assay: Antisense inhibition of human PKK mRNA in HepaRG cells, 1,000 nM, MOE/deoxy/cEt oligonucleotides (Example 3); format: cell-based; conditions: HepaRG cells, electroporation with 1,000 nM antisense oligonucleotide, approximately 24 hours, primer probe set RTS3454, relative to untreated control cells; experiment of Table 23
In short: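 Readout is percent PKK mRNA reduction against untreated controls, by real-time PCR (RTS3454) adjusted for total RNA via RIBOGREEN. Oligonucleotides, phosphorothioate gapmers of 16 nucleosides with cEt, MOE and deoxy sugars, were delivered at 1,000 nM by electroporation to 20,000 HepaRG cells/well for roughly 24 h.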

human PKK mRNA [5] = assay: Dose-dependent antisense inhibition of human PKK in HepaRG cells, 0.11-3.00 uM (Example 6); format: cell-based; conditions: electroporation, approx. 16 hours, relative to untreated control cells
In short: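 Antisense oligonucleotides were tested over 0.11–3.00 μM, delivered by electroporation, with readout after roughly 16 h. Human PKK transcript was measured by real-time PCR (set RTS3454) and adjusted to RIBOGREEN total RNA, giving half-maximal inhibitory concentrations.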

[6] = Table 34, HepaRG, electroporation, ~16 h
[7] = HepaRG cells, electroporation, approximately 16 hours, Table 39

Substance | % inhibition (human PKK mRNA [1]; Table 9 experiment) [%] | % inhibition (human PKK mRNA [1]; Table 10 experiment) [%] | % inhibition of PKK mRNA in the transgenic mice liver relative to the PBS control (human PKK mRNA [3]; 2.5 mg/kg/week sc) [%] | % inhibition of PKK mRNA in the transgenic mice liver relative to the PBS control (human PKK mRNA [3]; 10 mg/kg/week sc) [%] | % inhibition of PKK mRNA in the transgenic mice liver relative to the PBS control (human PKK mRNA [3]; 20 mg/kg/week sc) [%] | % inhibition of PKK protein levels in the transgenic mice relative to the PBS control (PKK protein; 2.5 mg/kg/week sc) [%] | % inhibition of PKK protein levels in the transgenic mice relative to the PBS control (PKK protein; 10 mg/kg/week sc) [%] | % inhibition of PKK protein levels in the transgenic mice relative to the PBS control (PKK protein; 20 mg/kg/week sc) [%] | % inhibition of PKK mRNA in the cynomolgus monkey liver relative to the PBS control (PKK mRNA) [%] | % inhibition of PKK mRNA in the transgenic mice liver relative to the PBS control (human PKK mRNA [3]; 5 mg/kg/week sc) [%] | % inhibition of PKK protein levels in the transgenic mice relative to the PBS control (PKK protein; 5 mg/kg/week sc) [%] | further results
546343 (antisense e[5mC]*e[5mC]*e[5mC]*e[5mC]*e[5mC]*dT*dT*d[5mC]*dT*dT*dT*dA*dT*dA*dG*e[5mC]*e[5mC]*eA*eG*e[5mC]) [compound 546343] | 97 | 91 | 46 | 66 | 86 | 0 | 38 | 79 | 74 | – | – | percent inhibition of PKK at 5.00 μM (human PKK mRNA [2]; HepaRG cells, electroporation, approximately 16 hours, Table 41): 95%; percent inhibition of PKK at 0.19 0μM (human PKK mRNA [2]; 0.19 0μM, HepaRG cells, electroporation, approximately 16 hours, Table 41): 37%; percent inhibition of PKK at 0.56 0μM (human PKK mRNA [2]; 0.56 0μM, HepaRG cells, electroporation, approximately 16 hours, Table 41): 32%; percent inhibition of PKK at 1.67 1μM (human PKK mRNA [2]; 1.67 1μM, HepaRG cells, electroporation, approximately 16 hours, Table 41): 83%; IC50 (human PKK mRNA [2]; 4 point dose response, HepaRG cells, Table 41): 0.4 µM; percent inhibition of PKK at 0.19 μM (human PKK mRNA [2]; [6]): 28%; percent inhibition of PKK at 0.56 μM (human PKK mRNA [2]; [6]): 64%; percent inhibition of PKK at 1.67 μM (human PKK mRNA [2]; [6]): 87%; percent inhibition of PKK at 5.00 μM (human PKK mRNA [2]; [6]): 87%; IC50 (human PKK mRNA [2]; Table 34, PKK mRNA, HepaRG, electroporation, ~16 h): 0.4 µM
547927 (eA*eT*kG*dG*dT*d[5mC]*d[5mC]*dG*dA*d[5mC]*dA*d[5mC]*dA*k[5mC]*kA*eA) [compound 547927] | – | – | 35 | 93 | 71 | 25 | – | 80 | 54 | 52 | 21 | % inhibition (human PKK mRNA [4]): 79%; percent inhibition of PKK mRNA, 0.11 μM (human PKK mRNA [5]; 0.11 μM): 56%; percent inhibition of PKK mRNA, 0.33 μM (human PKK mRNA [5]; 0.33 μM): 64%; percent inhibition of PKK mRNA, 1.00 μM (human PKK mRNA [5]; 1.00 μM): 92%; percent inhibition of PKK mRNA, 3.00 μM (human PKK mRNA [5]; 3.00 μM): 88%
547457 (antisense eA*eA*eG*eG*e[5mC]*dG*dA*dT*dA*dT*d[5mC]*dA*dT*dG*dA*eT*eT*e[5mC]*e[5mC]*e[5mC]) [compound 547457] | 89 | 92 | 0 | 45 | 62 | 0 | 31 | 60 | 89 | 69 | 4 | percent inhibition of PKK at 0.19 μM (human PKK mRNA [2]; [7]): 41%; percent inhibition of PKK at 0.56 μM (human PKK mRNA [2]; [7]): 65%; percent inhibition of PKK at 1.67 μM (human PKK mRNA [2]; [7]): 80%; percent inhibition of PKK at 5.00 μM (human PKK mRNA [2]; [7]): 85%; IC50 (human PKK mRNA [2]; 4 point dose response, HepaRG cells, Table 39): 0.3 µM; percent inhibition of PKK mRNA, 0.19 μM (human PKK mRNA [2]; HepaRG cells, 0.19 μM antisense oligonucleotide): 33%; percent inhibition of PKK mRNA, 0.56 μM (human PKK mRNA [2]; HepaRG cells, 0.56 μM antisense oligonucleotide): 42%; percent inhibition of PKK mRNA, 1.67 μM (human PKK mRNA [2]; HepaRG cells, 1.67 μM antisense oligonucleotide): 70%; percent inhibition of PKK mRNA, 5.00 μM (human PKK mRNA [2]; HepaRG cells, 5.00 μM antisense oligonucleotide): 83%; IC50 (human PKK mRNA [2]; HepaRG cells, 0.19-5.00 μM): 0.6 µM
